14 molecules from PubChem BioAssay (NCI) can be followed below.

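The compound was tested at five concentrations on cells cultured in 96-well plates, with a 48-hour exposure period. GI50 marks 50% less growth. TGI denotes the concentration required for complete inhibition of growth.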

Test systems include HCT-15 colon; HT29 colon; K-562 leukemia; MOLT-4 leukemia; NCI-H226 lung; OVCAR-3 ovarian; SK-MEL-28 melanoma; SN12C renal; SNB-19 CNS; SNB-75 CNS.
Common to all, as to experiment: DTP human tumour cell line panel, 48 h

On to `COc1cc(Cc2ccc3c(c2C#N)N(C)c2ccccc2S3)cc(OC)c1OC`, for which the concentration for total growth inhibition (TGI) (commonly the concentration at which net growth stops) in the assay with HCT-15 colon is 61.3 µM; in the assay on HT29 colon it was greater than 100 µM; in the assay with K-562 leukemia, greater than 100 µM; in the assay with MOLT-4 leukemia, greater than 100 µM; in the assay with NCI-H226 lung, greater than 100 µM; in the assay with OVCAR-3 ovarian, greater than 100 µM. Also, the TGI in the assay on SK-MEL-28 melanoma, with SN12C renal and in the assay with SNB-19 CNS was greater than 100 µM each time.
With `O=c1oc2c(ccc3c(O)cccc32)c2c1CCCC2`, the TGI in the assay on HT29 colon, with K-562 leukemia, with MOLT-4 leukemia, in the assay with NCI-H226 lung, in the assay on OVCAR-3 ovarian and in the assay on SK-MEL-28 melanoma was greater than 100 µM each time. The values for the TGI in the assay with SN12C renal, with SNB-19 CNS and with SNB-75 CNS were greater than 100 µM, greater than 100 µM and 19.9 µM, respectively.
With `COc1cc(C2S/C(=C/c3ccccc3)C(=O)N2c2ccccc2Cl)cc(OC)c1OC` (configuration not stated), the TGI with HCT-15 colon was greater than 100 µM; with HT29 colon it was 47.5 µM; in the assay on MOLT-4 leukemia it was greater than 100 µM; with NCI-H226 lung, greater than 100 µM; in the assay with SK-MEL-28 melanoma, greater than 100 µM; with SN12C renal, 62.1 µM. For the same molecule, the figures for the TGI in the assay with SNB-19 CNS and with SNB-75 CNS were greater than 100 µM and 29.6 µM, respectively.
As to `COc1cc2nc(N3CCC[C@@H](NC4=CC(=O)c5ccccc5C4=O)C3)nc(N)c2cc1OC`, the GI50 (as a rule, the concentration that inhibits growth by half) is 2.31 µM in the assay with HCT-15 colon; 1.88 µM in the assay with HT29 colon; 0.427 µM with K-562 leukemia; 2.34 µM in the assay on MOLT-4 leukemia; 21.9 µM in the assay on NCI-H226 lung; 2.03 µM in the assay on OVCAR-3 ovarian. The GI50 in the assay on SK-MEL-28 melanoma is 1.72 µM; in the assay with SN12C renal, 1.73 µM; in the assay on SNB-75 CNS it was 1.64 µM. For the same molecule, the TGI turned out to be 6.02 µM in the assay with HCT-15 colon; 3.82 µM with HT29 colon; 2.36 µM in the assay with K-562 leukemia; 5.55 µM in the assay on MOLT-4 leukemia; 52.7 µM in the assay on NCI-H226 lung; 3.81 µM in the assay with OVCAR-3 ovarian. Besides, the TGI in the assay on SK-MEL-28 melanoma stood at 3.39 µM; in the assay with SN12C renal, 3.44 µM; with SNB-75 CNS it was 3.25 µM.
Consider `CCOC(=O)/C(=N/Nc1ccc(Cl)cc1)N1C(=S)C=C(C)NN(C)C1=S`, for which the TGI in the assay with HCT-15 colon, in the assay with HT29 colon, with K-562 leukemia, in the assay on MOLT-4 leukemia, in the assay with OVCAR-3 ovarian and in the assay with SK-MEL-28 melanoma was greater than 100 µM each time. The TGI was greater than 100 µM in the assay on SN12C renal, greater than 100 µM in the assay on SNB-19 CNS and 69.3 µM in the assay with SNB-75 CNS.
`Cc1nc(N(CCO)CCO)c2sc(=S)n(-c3ccccc3)c2n1`: the TGI in the assay on HT29 colon, in the assay on K-562 leukemia, in the assay on MOLT-4 leukemia, in the assay with NCI-H226 lung, in the assay on OVCAR-3 ovarian and in the assay on SK-MEL-28 melanoma was greater than 100 µM throughout. Moreover, the TGI with SNB-19 CNS and in the assay on SNB-75 CNS was greater than 100 µM in each case.
Regarding `Cc1ccc(S(=O)(=O)Nc2cc(Sc3ccccc3)c(O)c3ccccc23)cc1`, the GI50 with HCT-15 colon is 6.81 µM; in the assay on HT29 colon, 20.6 µM; with K-562 leukemia, 3.38 µM; in the assay with MOLT-4 leukemia, 1.96 µM; with NCI-H226 lung it was 14.7 µM; in the assay on OVCAR-3 ovarian, 2.85 µM. Also, the GI50 in the assay on SK-MEL-28 melanoma was 4.4 µM; in the assay with SN12C renal, 2.31 µM; in the assay on SNB-75 CNS, 12.9 µM. Further, the TGI in the assay on HCT-15 colon was found to be 25.1 µM; in the assay with HT29 colon, 53.1 µM; in the assay with K-562 leukemia, 10.7 µM; in the assay with MOLT-4 leukemia it was 5.62 µM; in the assay on NCI-H226 lung it was 39.3 µM; in the assay on OVCAR-3 ovarian it was 8.24 µM. Also, the figures for the TGI with SK-MEL-28 melanoma, in the assay with SN12C renal and in the assay on SNB-75 CNS were 15 µM, 5.68 µM and 25.5 µM, respectively.
For `C/C(=N\NC(=S)Nc1ccc(Cl)cc1)c1nc2ncccc2[nH]1`, the TGI in the assay on HCT-15 colon came to 14.5 µM; in the assay with HT29 colon, 14.7 µM; in the assay with K-562 leukemia, 44.2 µM; with MOLT-4 leukemia, 22.2 µM; in the assay with NCI-H226 lung, 8.25 µM; in the assay with OVCAR-3 ovarian it was 10.5 µM. Also, the TGI is 13.3 µM in the assay with SK-MEL-28 melanoma, 31.4 µM in the assay with SN12C renal, greater than 100 µM in the assay on SNB-19 CNS and 25.4 µM in the assay on SNB-75 CNS.
Turning to `BrC1=CN2C[n+]3cc(Br)c4ccccc4c3N=C2c2ccccc21`, the TGI in the assay on HCT-15 colon was greater than 100 µM; with HT29 colon it was 38.6 µM; in the assay on K-562 leukemia, 39.5 µM; in the assay on MOLT-4 leukemia it was 33.2 µM; in the assay with OVCAR-3 ovarian, 8.86 µM; in the assay with SK-MEL-28 melanoma it was 6.7 µM. The TGI in the assay with SN12C renal is 50.4 µM; in the assay on SNB-19 CNS it was 32.4 µM; in the assay with SNB-75 CNS, 10.9 µM.
Take `COC(=O)C1=C(O)C(C(=O)OC)[C@@]2(O)[C@@H](C(=O)OC)CC[C@@H]1[C@@H]2C(=O)OC` (some centres not stated): the TGI in the assay with HCT-15 colon was 64.2 µM; in the assay on HT29 colon, greater than 100 µM; in the assay with K-562 leukemia, greater than 100 µM; in the assay on MOLT-4 leukemia, greater than 100 µM; with NCI-H226 lung, 70.9 µM; with OVCAR-3 ovarian, 58.8 µM. Further, the TGI with SK-MEL-28 melanoma is greater than 100 µM; in the assay on SN12C renal, greater than 100 µM; in the assay on SNB-19 CNS, greater than 100 µM; with SNB-75 CNS, 64.8 µM.
As to `CN(CCO)/N=N/c1nc[nH]c1C(N)=O`, the TGI in the assay with HCT-15 colon, with HT29 colon, with MOLT-4 leukemia, with NCI-H226 lung, with OVCAR-3 ovarian and in the assay on SK-MEL-28 melanoma was greater than 100 µM each time. For the same molecule, the TGI in the assay on SN12C renal, in the assay on SNB-19 CNS and with SNB-75 CNS was greater than 100 µM throughout.
Regarding `O=C(O)CN=c1c2ccccc2n(O)c2ccccc12`, the TGI is greater than 100 µM with HCT-15 colon; greater than 100 µM with HT29 colon; 26.9 µM in the assay with K-562 leukemia; greater than 100 µM in the assay with MOLT-4 leukemia; greater than 100 µM with NCI-H226 lung; greater than 100 µM with OVCAR-3 ovarian. Besides, the TGI with SK-MEL-28 melanoma, with SN12C renal, with SNB-19 CNS and in the assay with SNB-75 CNS was greater than 100 µM throughout.
`CCOC(=O)C(=O)Nc1cccc(C)c1C`: the TGI with HCT-15 colon, with HT29 colon, in the assay with K-562 leukemia, with MOLT-4 leukemia, in the assay with NCI-H226 lung and in the assay with OVCAR-3 ovarian was greater than 100 µM throughout. Also, the TGI in the assay on SK-MEL-28 melanoma, with SN12C renal, in the assay with SNB-19 CNS and in the assay on SNB-75 CNS was greater than 100 µM in each case.
In the case of `C/C([O-])=C(/c1nc(-c2ccc([N+](=O)[O-])o2)no1)[n+]1cc(C)ccc1C`, the TGI in the assay with HCT-15 colon was 22.3 µM; in the assay on HT29 colon it was 22.7 µM; in the assay with K-562 leukemia, greater than 51.9 µM; in the assay on MOLT-4 leukemia it was greater than 100 µM; in the assay with NCI-H226 lung, 31.6 µM; in the assay on OVCAR-3 ovarian, 37.7 µM. In addition, the TGI in the assay on SK-MEL-28 melanoma is 25.6 µM; with SN12C renal, 29.3 µM; with SNB-19 CNS, 41.5 µM; in the assay on SNB-75 CNS, greater than 49.9 µM.
